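Interpolation was linear, between the two tested concentrations surrounding the appropriate level; five concentrations were tested over 48 hours in 96-well plates. At the TGI there is no net growth.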
How the values were obtained:
Assay in all cases: NCI anticancer screen, dose series, 48 h
LOX IMVI melanoma = system: LOX IMVI melanoma
SF-268 CNS = system: SF-268 CNS
K-562 leukemia = system: K-562 leukemia
SF-539 CNS = system: SF-539 CNS
UO-31 renal = system: UO-31 renal
U251 CNS = system: U251 CNS
HT29 colon = system: HT29 colon
UACC-62 melanoma = system: UACC-62 melanoma
MDA-MB-231 breast = system: MDA-MB-231 breast
SK-MEL-2 melanoma = system: SK-MEL-2 melanoma
NCI-H226 lung = system: NCI-H226 lung
MDA-N = system: MDA-N
EKVX NSCLC = system: EKVX NSCLC
BT-549 breast = system: BT-549 breast
PC-3 prostate = system: PC-3 prostate
SK-MEL-28 melanoma = system: SK-MEL-28 melanoma
A549 NSCLC = system: A549 NSCLC
CCRF-CEM leukemia = system: CCRF-CEM leukemia

Row | SMILES | TGI (LOX IMVI melanoma) [µM] | TGI (SF-268 CNS) [µM] | TGI (K-562 leukemia) [µM] | TGI (SF-539 CNS) [µM] | TGI (UO-31 renal) [µM] | TGI (U251 CNS) [µM] | TGI (HT29 colon) [µM] | TGI (UACC-62 melanoma) [µM] | TGI (MDA-MB-231 breast) [µM] | TGI (SK-MEL-2 melanoma) [µM] | TGI (NCI-H226 lung) [µM] | TGI (MDA-N) [µM] | TGI (EKVX NSCLC) [µM] | TGI (BT-549 breast) [µM] | TGI (PC-3 prostate) [µM] | TGI (SK-MEL-28 melanoma) [µM] | TGI (A549 NSCLC) [µM] | TGI (CCRF-CEM leukemia) [µM]
1 | N/C(=N\S(=O)(=O)c1cccc2nsnc12)Nc1ccc(Cl)cc1 | 85.8 | > 100 | > 100 | > 100 | > 100 | 77.1 | > 100 | 35.2 | 75.9 | 26.3 | > 100 | > 100 | 63.7 | > 100 | 55 | 71.8 | > 100 | –
2 | O=C(NCCCCN(CCCNC(=O)C(F)(F)F)Cc1ccc2ccccc2c1)C(F)(F)F | 32.7 | 31.9 | 37 | 29.8 | 20.5 | 67.2 | 26.6 | 37 | 31.1 | – | 56.8 | 31.6 | 35.8 | 36.5 | – | 31.5 | > 100 | –
3 | N#CC1Cc2cc3c(cc21)OCO3 (stereo not given) | > 100 | – | > 100 | > 100 | > 100 | > 100 | > 100 | > 100 | > 100 | > 100 | > 100 | > 100 | > 100 | > 100 | > 100 | > 100 | > 100 | > 100
4 | CC(C)c1nc2cc(C(F)(F)F)ccc2[nH]c1=O | – | > 100 | > 100 | > 100 | > 100 | > 100 | > 100 | > 100 | > 100 | > 100 | > 100 | > 100 | > 100 | > 100 | > 100 | > 100 | > 100 | > 100
5 | O=S(=O)(O)CCCC1S(=O)(=O)OCCOS1(=O)=O | > 100 | > 100 | – | > 100 | > 100 | > 100 | > 100 | > 100 | > 100 | – | > 100 | > 100 | > 100 | > 100 | > 100 | > 100 | – | –
6 | O=C1NC(=O)C(CC(C(=O)C(=O)Nc2ccccc2Cl)C(=O)c2ccc3ccccc3c2)C(=O)N1 (stereo not given) | > 100 | > 100 | – | > 100 | > 100 | > 100 | > 100 | > 100 | > 100 | > 100 | > 100 | > 100 | > 100 | > 100 | > 100 | > 100 | > 100 | > 100
7 | CC(C)C[C@H](NC(=O)[C@H](Cc1ccccc1)NC(=O)CCc1ccccc1)B(O)O | < 0.01 | < 0.01 | > 100 | < 0.01 | < 0.01 | < 0.0112 | < 0.01 | – | < 0.01 | < 0.01 | < 0.01 | < 0.01 | < 0.0216 | < 0.01 | < 0.01 | < 0.01 | 0.0919 | > 100
8 | CCOC(=O)C1C(c2ccc(OC)cc2)c2c([nH]n(-c3ccccc3)c2=O)CC1(O)OCC (stereo not given) | > 100 | > 100 | – | > 100 | > 100 | > 100 | > 100 | > 100 | > 100 | > 100 | – | > 100 | > 100 | > 100 | > 100 | > 100 | > 100 | –
9 | Nc1ccc(-c2cssc2=S)cc1 | > 100 | > 100 | > 100 | > 100 | > 100 | > 100 | > 100 | 94.9 | > 100 | 77 | > 100 | > 100 | > 100 | > 100 | > 100 | > 100 | > 100 | –
10 | O=C1Cc2c([nH]c3c(Cl)cccc23)-c2ccccc2N1 | > 100 | > 100 | > 100 | > 100 | > 100 | > 100 | > 100 | > 100 | > 100 | – | > 100 | > 100 | – | > 100 | > 100 | > 100 | > 100 | > 100
11 | O=C(Nc1nc(C23CC4CC(CC(C4)C2)C3)cs1)c1c(O)c2ccccc2[nH]c1=O | > 100 | > 100 | > 100 | > 100 | > 100 | > 100 | > 100 | – | > 100 | – | > 100 | > 100 | > 100 | > 100 | > 100 | > 100 | > 100 | > 100
12 | CCOC(O)(NC(=O)C(C(F)(F)F)C(F)(F)F)C(F)(F)F (stereo not given) | > 100 | > 100 | > 100 | > 100 | > 100 | > 100 | > 100 | – | – | > 100 | – | > 100 | > 100 | > 100 | > 100 | > 100 | > 100 | > 100
13 | COC(=O)C1=C(C(=O)OC)C(Cc2ccccc2)(OO)OC1=O (stereo not given) | 22.8 | – | 63.7 | 17.1 | 26.9 | 67.9 | 24.2 | 15.5 | > 100 | 96.2 | 35.9 | > 100 | 37.3 | 26.3 | > 100 | > 100 | > 100 | 6.69
14 | CN(C)Cc1cc(N=Nc2cccc(Cl)c2)ccc1O | 16.6 | 40.3 | 12.8 | 33 | 23.3 | 33.1 | 33.7 | 13.1 | 36.7 | – | 50.7 | 23.9 | – | 34 | 38.1 | 26.9 | 32.2 | 36.3
15 | C=C1[C@H](OC(=O)C(C)C)[C@]23CC4(O)[C@@H]5[C@@]6(C)CCC[C@]57C([C@@H]2C[C@@]1(O)[C@H](O)[C@@H]73)N4C6 | > 100 | > 100 | – | > 100 | > 100 | > 100 | > 100 | > 100 | > 100 | > 100 | > 100 | > 100 | > 100 | > 100 | > 100 | > 100 | > 100 | > 100
16 | N#CC(c1nc2ccccc2s1)c1ncnc(Cl)c1[N+](=O)[O-] (stereo not given) | 33.1 | 32.9 | – | 61.3 | 91.3 | 95.7 | 34.8 | – | 92.1 | – | 83.3 | 37.5 | 76.5 | 56.3 | – | 38.7 | > 100 | > 100
17 | CC(=O)Nc1ccc(N=C2C(c3ccccc3)=C(SC3=C(c4ccccc4)C(=Nc4ccc(NC(C)=O)cc4)c4ccccc43)c3ccccc32)cc1 | > 100 | > 100 | > 100 | 28.5 | > 100 | > 100 | > 100 | – | > 100 | > 100 | > 100 | > 100 | > 100 | 73.1 | > 100 | > 100 | > 100 | > 100
18 | Cn1ccc(C(=O)N2CCSC2=S)c(OCc2ccccc2)c1=O | > 100 | > 100 | > 100 | – | > 100 | > 100 | > 100 | > 100 | > 100 | > 100 | > 100 | > 100 | – | > 100 | > 100 | > 100 | > 100 | > 100
19 | Cc1n[nH]c(=O)n1C1CCCC1 | > 100 | > 100 | > 100 | > 100 | > 100 | > 100 | > 100 | – | > 100 | – | > 100 | > 100 | > 100 | > 100 | > 100 | > 100 | > 100 | > 100
20 | COCO[C@@H]1C[C@H]2C(=O)N(COC)c3ccccc3C(=O)N2C1 | > 100 | > 100 | – | > 100 | > 100 | > 100 | > 100 | > 100 | > 100 | > 100 | > 100 | > 100 | > 100 | > 100 | > 100 | > 100 | > 100 | > 100
21 | C1=Nc2ccc(cc2)N=Cc2ccc(cc2)OCc2cccc(n2)COc2ccc1cc2 | – | > 100 | > 100 | > 100 | > 100 | > 100 | > 100 | > 100 | > 100 | > 100 | > 100 | > 100 | > 100 | > 100 | > 100 | > 100 | > 100 | > 100
22 | O=S(=O)(N/N=C1\CC2CCC1C2)c1ccccc1 (stereo not given) | > 100 | > 100 | > 100 | – | > 100 | > 100 | > 100 | > 100 | – | > 100 | > 100 | > 100 | > 100 | > 100 | > 100 | > 100 | > 100 | > 100
23 | COC(=O)[C@H](Cc1ccccc1)NC(=O)N1CCCN(C(=O)N[C@@H](Cc2ccccc2)C(=O)OC)CCCN(C(=O)N[C@@H](Cc2ccccc2)C(=O)OC)CCC1 | 29.8 | 34 | > 100 | – | 29.4 | 32.8 | 33.5 | 30.2 | – | 29.5 | 31.5 | 45.8 | 53.5 | 57.1 | 31.1 | 35.4 | 76.4 | 92.8
24 | COc1ccc(/C=C2\C(=O)N(C)C(=O)c3cc(OC)c(OC)cc32)cc1OC | 34.1 | – | > 100 | 76.2 | > 100 | > 100 | 34.2 | 94 | > 100 | > 100 | 34.7 | 75.2 | 27.9 | 55.6 | > 100 | – | > 100 | 69.7
25 | S=c1nc(Cc2ccc(Cl)cc2)[nH][nH]1 | > 100 | – | > 100 | > 100 | > 100 | > 100 | > 100 | > 100 | > 100 | > 100 | > 100 | > 100 | > 100 | > 100 | > 100 | > 100 | > 100 | > 100
26 | Cc1c(C#N)c2ccccc2c2nc3ccccc3n12 | > 100 | – | > 100 | > 100 | > 100 | > 100 | – | > 100 | 86.9 | > 100 | > 100 | > 100 | > 100 | > 100 | > 100 | > 100 | > 100 | > 100
27 | O=c1[nH]cnc2c1sc1nc3ccccc3n12 | > 100 | > 100 | – | > 100 | > 100 | > 100 | > 100 | > 100 | > 100 | > 100 | > 100 | > 100 | > 100 | > 100 | > 100 | > 100 | > 100 | > 100
28 | COc1cc(/C=N/n2c(Cc3ccc(Cl)cc3)n[nH]c2=O)cc(OC)c1OC | – | > 100 | > 100 | > 100 | > 100 | > 100 | > 100 | > 100 | > 100 | > 100 | > 100 | > 100 | > 100 | > 100 | > 100 | > 100 | > 100 | > 100
